Results as given in paper PMC10567917 (Archives of Toxicology, 2023).
Values joined by “and” are separate entries in the source; they are usually repeats but may differ in a detail not shown here. Equal entries are not always repeated.

Legend:
[1] = tested on: primary mouse hepatocytes
[2] = tested on: primary human hepatocytes
[3] = tested on: primary human hepatocytes; format: in vitro ADME
[4] = tested on: intracellular proteins of primary human hepatocytes
rainbow trout = conditions: in vivo; cited from earlier work

COc1cc2c(c3oc(=O)c4c(c13)CCC4=O)C1(O)C=COC1O2 (stereo not shown) [AFM1, aflatoxin M1]
maximum concentration in culture medium [1]: 353 nM
concentration in culture medium [2]: 33 nM and 46 nM

O=C1CCc2c1c(=O)oc1c3c(cc(O)c21)O[C@H]1OC=C[C@@H]31 [AFP1, aflatoxin P1]
maximum concentration in culture medium [1]: 896 nM
detection in culture medium (primary rat hepatocytes): detected only in trace amounts
detection in culture medium [2]: just formed in trace amounts

COc1cc2c(c3oc(=O)c4c(c13)CCC4=O)[C@H]1[C@@H](O2)OC(SCC(NC(C)=O)C(=O)O)[C@@H]1O (stereo partly shown) [AFB1-NAC, AFB1-N-acetylcysteine]
detection in culture medium [2]: not detected

COc1cc2c(c3oc(=O)c4c(c13)CCC4=O)[C@H]1[C@@H](O2)OC(SCC(NC(=O)CCC(N)C(=O)O)C(=O)NCC(=O)O)[C@@H]1O (stereo partly shown) [AFB1-GSH, AFB1-glutathione]
intracellular detection [3]: not detected
concentration in culture medium (primary rat hepatocytes): 72 nM
concentration in culture medium (plateau) (primary rat hepatocytes): 415 nM
detection in culture medium [2]: not detected

COc1cc2c(c3oc(=O)c4c(c13)CCC4=O)[C@@H]1C=CO[C@@H]1O2 [AFB1, Aflatoxin B1]
estimated intracellular concentration of AFB1 [3]: 1 mM
AFB1 in culture medium [1]: no longer detectable
AFB1 remaining in culture medium [1]: 0.2 µM
time up to which AFB1 was detectable in culture medium [1]: up to 6 h
AFB1 remaining in culture medium (primary rat hepatocytes): 3.48 µM
AFB1 remaining in culture medium [2]: 8.54 µM
concentration in culture medium [2]: 636 nM

O=C1CCc2c1c(=O)oc1c3c(cc(O[C@@H]4O[C@H](C(=O)O)[C@@H](O)[C@H](O)[C@H]4O)c21)O[C@H]1OC=C[C@@H]31 [AFP1-Glc, AFP1 glucuronide]
AFP1-Glc level in mouse samples relative to rat samples [1]: about 100 fold
detection of AFP1-Glc [2]: no AFP1-Glc was detectable

COc1cc(O)c(C2=CC(=O)N(CCCC[C@H](N)C(=O)O)C2)c2oc(=O)c3c(c12)CCC3=O [AFB1-Lys, AFB1-lysine]
detection in culture medium (primary rat hepatocytes): detected only in trace amounts
AFB1-Lys in proteins of cell lysate [4]: around 1.0 pmol

COc1cc2c(c3oc(=O)c4c(c13)[C@@H](O)CC4=O)[C@@H]1C=CO[C@@H]1O2 [AFQ1, aflatoxin Q1]
maximum concentration in culture medium [1]: 25 nM
Formation rate (primary rat hepatocytes): 87 pmol/h and 74 700 pmol/h
concentration in culture medium (primary rat hepatocytes): 112 nM
carcinogenic potency relative to AFB1 (rainbow trout): about 1%
